Each structure is given as a SMILES string. A value given as a limit tells only on which side of the number the result lay.

IC50 data for 45 molecules are collected here from ChEMBL document CHEMBL1149678, “Synthesis and structure-activity relationship of RXR antagonists based on the diazepinylbenzoic acid structure” (Bioorg Med Chem Lett, 2007).

The target in test [1] is T1, Retinoic acid receptor RXR-alpha (Homo sapiens, UniProt P19793).
T1 sequence (P19793 whole entry): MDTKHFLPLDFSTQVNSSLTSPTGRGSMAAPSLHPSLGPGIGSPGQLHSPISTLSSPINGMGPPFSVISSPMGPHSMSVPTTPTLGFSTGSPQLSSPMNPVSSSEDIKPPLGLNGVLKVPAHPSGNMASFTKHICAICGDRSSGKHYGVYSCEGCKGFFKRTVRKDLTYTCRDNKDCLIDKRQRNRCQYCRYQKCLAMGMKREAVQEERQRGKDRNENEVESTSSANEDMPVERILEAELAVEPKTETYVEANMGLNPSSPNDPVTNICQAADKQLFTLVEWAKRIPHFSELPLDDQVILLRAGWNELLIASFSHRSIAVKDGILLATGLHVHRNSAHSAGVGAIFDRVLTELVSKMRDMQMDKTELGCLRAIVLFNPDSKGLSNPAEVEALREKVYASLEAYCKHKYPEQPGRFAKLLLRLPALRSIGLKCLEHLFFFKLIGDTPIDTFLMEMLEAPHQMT
The test is described as follows: Antagonist activity at human RXRalpha expressed in […] cells assessed as inhibition of LG-100268-induced transactivation. The format is functional, cell-based, HEK293.

For test [2], the target named is T1, Retinoic acid receptor RXR-alpha. The test is described as follows: Antagonist activity at human RXRalpha expressed in […] cells assessed as inhibition of 9-cis-retinoic acid-induced transactivation. The format is functional, cell-based, HEK293.

For the molecule `CN1c2ccc(NS(=O)(=O)c3ccc(F)cc3)cc2N=C(c2ccc(C(=O)O)cc2)c2cc3c(cc21)C(C)(C)CCC3(C)C`, the IC50 in test [1] is 1700 nM; in test [2] it was 190 nM.
For `CN1c2ccc(NC(=O)NCc3ccccc3)cc2N=C(c2ccc(C(=O)O)cc2)c2cc3c(cc21)C(C)(C)CCC3(C)C`, the IC50 in test [1] was 2500 nM; in test [2] it was 2800 nM.
As for `CCNC(=O)Nc1ccc2c(c1)N=C(c1ccc(C(=O)O)cc1)c1cc3c(cc1N2C)C(C)(C)CCC3(C)C`, the IC50 in test [1] was determined as 7400 nM; in test [2], 7300 nM.
The like results for `CCCCNC(=O)Nc1ccc2c(c1)N=C(c1ccc(C(=O)O)cc1)c1cc3c(cc1N2C)C(C)(C)CCC3(C)C` were, in that order, 3400 nM and 3300 nM.
Taken in the same sequence, the figures for `CNc1ccc2c(c1)N=C(c1ccc(C(=O)O)cc1)c1cc3c(cc1N2C)C(C)(C)CCC3(C)C` were greater than 100000 nM and greater than 10000 nM.
Regarding `CN1c2ccc(NC(=O)c3ccccc3)cc2N=C(c2ccc(C(=O)O)cc2)c2cc3c(cc21)C(C)(C)CCC3(C)C`, the results for the IC50 in test [1] and in test [2] were 2000 nM and 900 nM, respectively.
On to `CCCCS(=O)(=O)Nc1ccc2c(c1)N=C(c1ccc(C(=O)O)cc1)c1cc3c(cc1N2CCC)C(C)(C)CCC3(C)C`, for which the IC50 came out at 850 nM in test [1] and 140 nM in test [2].
In the case of `CN1c2ccc(NS(=O)(=O)/C=C/c3ccccc3)cc2N=C(c2ccc(C(=O)O)cc2)c2cc3c(cc21)C(C)(C)CCC3(C)C`, the IC50 in test [1] was determined as 2900 nM; in test [2] it was 400 nM.
With `CN1c2ccc(NC(=O)c3cccc(C(F)(F)F)c3)cc2N=C(c2ccc(C(=O)O)cc2)c2cc3c(cc21)C(C)(C)CCC3(C)C`, the values for the IC50 in test [1] and in test [2] were 4100 nM and 4200 nM, respectively.
For `CC(C)C(=O)Nc1ccc2c(c1)N=C(c1ccc(C(=O)O)cc1)c1cc3c(cc1N2C)C(C)(C)CCC3(C)C`, the IC50 in test [1] was 5600 nM; in test [2], 1900 nM.
In the case of `CN1c2ccc(NS(C)(=O)=O)cc2N=C(c2ccc(C(=O)O)cc2)c2cc3c(cc21)C(C)(C)CCC3(C)C`, the IC50 in test [1] is 4400 nM; in test [2], 2400 nM.
Taken in the same sequence, the figures for `CCCN1c2ccc(NS(=O)(=O)CCC)cc2N=C(c2ccc(C(=O)O)cc2)c2cc3c(cc21)C(C)(C)CCC3(C)C` were 840 nM and 550 nM.
Taken in the same sequence, the figures for `CN1c2ccc(NS(=O)(=O)c3ccccc3F)cc2N=C(c2ccc(C(=O)O)cc2)c2cc3c(cc21)C(C)(C)CCC3(C)C` were 4400 nM and 2300 nM.
`CCCN1c2ccc(NC(=O)Cc3ccc(F)cc3)cc2N=C(c2ccc(C(=O)O)cc2)c2cc3c(cc21)C(C)(C)CCC3(C)C`: the figures for the IC50 in test [1] and in test [2] were 3900 nM and 3100 nM, respectively.
As for `CCN1c2ccc(NC(=O)Cc3ccc(F)cc3)cc2N=C(c2ccc(C(=O)O)cc2)c2cc3c(cc21)C(C)(C)CCC3(C)C`, the IC50 in test [1] was 1200 nM; in test [2], 720 nM.
As to `CN1c2ccc(NS(=O)(=O)c3ccccc3C(F)(F)F)cc2N=C(c2ccc(C(=O)O)cc2)c2cc3c(cc21)C(C)(C)CCC3(C)C`, the IC50 came to 2600 nM in test [1] and 1400 nM in test [2].
With `CCC(=O)Nc1ccc2c(c1)N=C(c1ccc(C(=O)O)cc1)c1cc3c(cc1N2C)C(C)(C)CCC3(C)C`, the IC50 in test [1] worked out at 7100 nM; in test [2], 2200 nM.
`CCCCS(=O)(=O)Nc1ccc2c(c1)N=C(c1ccc(C(=O)O)cc1)c1cc3c(cc1N2C)C(C)(C)CCC3(C)C`: the IC50 in test [1] is 910 nM; in test [2], 370 nM.
As to `CN1c2ccc(NCc3ccccc3)cc2N=C(c2ccc(C(=O)O)cc2)c2cc3c(cc21)C(C)(C)CCC3(C)C`, the IC50 is greater than 100000 nM in test [1] and greater than 10000 nM in test [2].
Regarding `CN1c2ccc(NC(=O)C3CCCCC3)cc2N=C(c2ccc(C(=O)O)cc2)c2cc3c(cc21)C(C)(C)CCC3(C)C`, the IC50 amounted to 4500 nM in test [1] and 1500 nM in test [2].
As for `CCCS(=O)(=O)Nc1ccc2c(c1)N=C(c1ccc(C(=O)O)cc1)c1cc3c(cc1N2CC)C(C)(C)CCC3(C)C`, the IC50 in test [1] was determined as 570 nM; in test [2] it was 340 nM.
For `CN1c2ccc(NS(=O)(=O)c3cc(C(F)(F)F)cc(C(F)(F)F)c3)cc2N=C(c2ccc(C(=O)O)cc2)c2cc3c(cc21)C(C)(C)CCC3(C)C`, the IC50 was 4100 nM in test [1] and 1200 nM in test [2].
Regarding `CN1c2ccc(NS(=O)(=O)c3cccc4ccccc34)cc2N=C(c2ccc(C(=O)O)cc2)c2cc3c(cc21)C(C)(C)CCC3(C)C`, the IC50 in test [1] turned out to be 3400 nM; in test [2] it was 850 nM.
In the case of `CN1c2ccc(NS(=O)(=O)c3ccc(-c4ccccc4)cc3)cc2N=C(c2ccc(C(=O)O)cc2)c2cc3c(cc21)C(C)(C)CCC3(C)C`, the figures for the IC50 in test [1] and in test [2] were 6200 nM and 1300 nM, respectively.
As to `CCCS(=O)(=O)Nc1ccc2c(c1)N=C(c1ccc(C(=O)O)cc1)c1cc3c(cc1N2C)C(C)(C)CCC3(C)C`, the IC50 in test [1] stood at 2100 nM; in test [2], 250 nM.
In the case of `CN1c2ccc(NC(=O)c3ccc(F)cc3)cc2N=C(c2ccc(C(=O)O)cc2)c2cc3c(cc21)C(C)(C)CCC3(C)C`, the IC50 in test [1] turned out to be 1600 nM; in test [2] it was 1700 nM.
Consider `CN1c2ccc(NC(=O)Cc3ccccc3)cc2N=C(c2ccc(C(=O)O)cc2)c2cc3c(cc21)C(C)(C)CCC3(C)C`, for which the IC50 in test [1] is 2500 nM; in test [2] it was 970 nM.
As to `CN1c2ccc(NS(=O)(=O)c3cccc(C(F)(F)F)c3)cc2N=C(c2ccc(C(=O)O)cc2)c2cc3c(cc21)C(C)(C)CCC3(C)C`, the IC50 in test [1] stood at 1500 nM; in test [2], 480 nM.
As to `CCCNC(=O)Nc1ccc2c(c1)N=C(c1ccc(C(=O)O)cc1)c1cc3c(cc1N2C)C(C)(C)CCC3(C)C`, the results for the IC50 in test [1] and in test [2] were 5200 nM and 6200 nM, respectively.
The like results for `CN1c2ccc(NS(=O)(=O)c3ccc(C(F)(F)F)cc3)cc2N=C(c2ccc(C(=O)O)cc2)c2cc3c(cc21)C(C)(C)CCC3(C)C` were, in that order, 2200 nM and 1100 nM.
For the molecule `CN1c2ccc(NC(=O)Cc3ccc(F)cc3)cc2N=C(c2ccc(C(=O)O)cc2)c2cc3c(cc21)C(C)(C)CCC3(C)C`, the half-inhibitory concentration (IC50) in test [1] came to 1300 nM; in test [2], 880 nM.
As for `CN1c2ccc(NC(=O)C34CC5CC(CC(C5)C3)C4)cc2N=C(c2ccc(C(=O)O)cc2)c2cc3c(cc21)C(C)(C)CCC3(C)C`, the IC50 in test [1] is 7200 nM; in test [2], 2900 nM.
With `CN1c2ccc(NS(=O)(=O)c3ccccc3)cc2N=C(c2ccc(C(=O)O)cc2)c2cc3c(cc21)C(C)(C)CCC3(C)C`, the IC50 in test [1] worked out at 1400 nM; in test [2], 510 nM.
Take `CN1c2ccc(NS(=O)(=O)c3cccc(F)c3)cc2N=C(c2ccc(C(=O)O)cc2)c2cc3c(cc21)C(C)(C)CCC3(C)C`: the figures for the IC50 in test [1] and in test [2] were 2300 nM and 1200 nM, respectively.
With `CCCCS(=O)(=O)Nc1ccc2c(c1)N=C(c1ccc(C(=O)O)cc1)c1cc3c(cc1N2CC)C(C)(C)CCC3(C)C`, the IC50 in test [1] worked out at 320 nM; in test [2], 200 nM.
On to `CN1c2ccc(NC(=O)/C=C/c3ccccc3)cc2N=C(c2ccc(C(=O)O)cc2)c2cc3c(cc21)C(C)(C)CCC3(C)C`, for which the IC50 in test [1] was determined as 5200 nM; in test [2] it was 1500 nM.
The like results for `CCN1c2ccc(NS(=O)(=O)c3ccc(F)cc3)cc2N=C(c2ccc(C(=O)O)cc2)c2cc3c(cc21)C(C)(C)CCC3(C)C` were, in that order, 420 nM and 220 nM.
In the case of `CCCN1c2ccc(NS(=O)(=O)c3ccc(F)cc3)cc2N=C(c2ccc(C(=O)O)cc2)c2cc3c(cc21)C(C)(C)CCC3(C)C`, the values for the IC50 in test [1] and in test [2] were 810 nM and 130 nM, respectively.
As to `COc1ccc(S(=O)(=O)Nc2ccc3c(c2)N=C(c2ccc(C(=O)O)cc2)c2cc4c(cc2N3C)C(C)(C)CCC4(C)C)cc1`, the IC50 is 2500 nM in test [1] and 470 nM in test [2].
For `CN1c2ccc(NS(=O)(=O)Cc3ccccc3)cc2N=C(c2ccc(C(=O)O)cc2)c2cc3c(cc21)C(C)(C)CCC3(C)C`, the IC50 in test [1] turned out to be 5200 nM; in test [2], 1000 nM.
With `CCCC(=O)Nc1ccc2c(c1)N=C(c1ccc(C(=O)O)cc1)c1cc3c(cc1N2C)C(C)(C)CCC3(C)C`, the IC50 in test [1] is 3900 nM; in test [2], 1800 nM.
For the molecule `CCS(=O)(=O)Nc1ccc2c(c1)N=C(c1ccc(C(=O)O)cc1)c1cc3c(cc1N2C)C(C)(C)CCC3(C)C`, the figures for the IC50 in test [1] and in test [2] were 4900 nM and 840 nM, respectively.
In the case of `CCCCNc1ccc2c(c1)N=C(c1ccc(C(=O)O)cc1)c1cc3c(cc1N2C)C(C)(C)CCC3(C)C`, the IC50 in test [1] was greater than 100000 nM; in test [2], greater than 10000 nM.
Consider `CNC(=O)Nc1ccc2c(c1)N=C(c1ccc(C(=O)O)cc1)c1cc3c(cc1N2C)C(C)(C)CCC3(C)C`, for which the IC50 stood at 14000 nM in test [1] and 15000 nM in test [2].
As for `Cc1ccc(S(=O)(=O)Nc2ccc3c(c2)N=C(c2ccc(C(=O)O)cc2)c2cc4c(cc2N3C)C(C)(C)CCC4(C)C)cc1`, the IC50 in test [1] was 2500 nM; in test [2] it was 430 nM.
